From ChEMBL document CHEMBL1140977, “Synthesis and screening of a cyclic peptide library: discovery of small-molecule ligands against human prolactin receptor” (Bioorg Med Chem, 2009)
Activity calls are given as the source filed them. The rule behind the calls is not given here. Square brackets hold non-standard residues; d marks the D form. Peptide text beside a SMILES is read from it. NMeL = CN[C@@H](CC(C)C)C(=O)O

Key:
[1] = target: T1, Prolactin receptor (Homo sapiens, UniProt P16471); test: (§1) Binding affinity to human prolactin receptor extracellular binding domain by surface plasmon […]
T1 sequence (P16471 whole entry): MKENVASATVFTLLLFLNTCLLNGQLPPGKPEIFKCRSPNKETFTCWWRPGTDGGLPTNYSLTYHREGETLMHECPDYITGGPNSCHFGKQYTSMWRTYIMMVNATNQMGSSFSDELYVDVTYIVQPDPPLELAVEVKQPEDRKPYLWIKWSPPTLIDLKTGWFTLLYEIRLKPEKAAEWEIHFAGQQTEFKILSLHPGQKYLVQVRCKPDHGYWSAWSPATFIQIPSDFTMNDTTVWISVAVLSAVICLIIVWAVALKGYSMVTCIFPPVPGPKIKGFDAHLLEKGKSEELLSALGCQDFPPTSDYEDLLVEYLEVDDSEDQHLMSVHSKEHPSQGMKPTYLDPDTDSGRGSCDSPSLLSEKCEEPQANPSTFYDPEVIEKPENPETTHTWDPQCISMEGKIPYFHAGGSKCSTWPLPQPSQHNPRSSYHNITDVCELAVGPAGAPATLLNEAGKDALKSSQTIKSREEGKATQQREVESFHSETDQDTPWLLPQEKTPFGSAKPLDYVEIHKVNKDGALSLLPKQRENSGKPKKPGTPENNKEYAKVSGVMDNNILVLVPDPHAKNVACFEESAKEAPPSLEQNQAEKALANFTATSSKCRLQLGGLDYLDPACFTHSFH

[2] = target: T2, Prolactin receptor (Homo sapiens) (UniProt P16471); test: as §1
T2 sequence (whole entry): T1 sequence (P16471 whole entry)

| Kd [1] | Activity [2] | SMILES |
| --- | --- | --- |
| 2 µM |  | CC(C)[C@@H]1NC(=O)[C@H](CCCNC(=N)N)NC(=O)[C@H](CO)NC(=O)[C@H](CCC(N)=O)NC(=O)[C@H](Cc2ccc(O)cc2)NC(=O)[C@H](CCCNC(=N)N)NC(=O)[C@H](C)NC(=O)[C@H](CCC(=O)O)NC1=O (cyclo(ARYQSRVE)) |
| 3 µM |  | CC(C)C[C@H]1NC(=O)[C@@H](C)NC(=O)[C@H](CCC(=O)O)NC(=O)[C@H](C(C)C)NC(=O)[C@H](CCCNC(=N)N)NC(=O)[C@H](Cc2ccc(O)cc2)NC(=O)[C@H](CO)NC(=O)[C@H](Cc2ccc(O)cc2)NC1=O |
|  | inactive | CC(C)C[C@H]1C(=O)N[C@@H](CCC(N)=O)C(=O)N[C@@H](CCCNC(=N)N)C(=O)N[C@@H](Cc2ccccc2)C(=O)N[C@@H](C(C)C)C(=O)N[C@@H](CCC(=O)O)C(=O)N[C@@H](C)C(=O)NCC(=O)N1C (cyclo(AG[NMeL]QRFVE)) |
